Measurements from patent US20060122264A1, “Stem cell invasion inhibitor” (Yasumi Uchida, etal, priority 2003, published 2006).
Entries after “also recorded” stand apart in the source; their conditions may differ. Marks after values point to notes of the source that are not given here.

What was measured:
[1] = tested on: Human umbilical vein endothelial cells (HUBEC); assay: Proliferation of human vascular endothelial cells; type: cell-based; conditions: for number of cells after culturing for three days: Endothelial cells
Description: (§1) Human umbilical vein endothelial cells (HUBEC) (1×10^5/cm^2) were inoculated into a medium containing MCDB-104, 10% FBS, ECGF (100 ng/mL), EGF (10 ng/mL), and heparin (100 ng/mL), and phenolsulfonphthalein or bromosulfophthalein was added to the medium, followed by culturing for three days. Thereafter, the resultant cells were counted, and the number of the cells was compared with that in the case where no drug was added to the medium. In a manner similar to that described above, human coronary artery smooth muscle cells (1×10^5/cm^2) were cultured in a medium containing MCDB-104, 10% FBS, and EGF (10 ng/mL) for three days, and the resultant cells were counted.

[2] = tested on: human coronary artery smooth muscle cells; assay: Proliferation of human coronary artery smooth muscle cells; type: cell-based; conditions: for number of cells after culturing for three days: Smooth muscle cells
Description: as §1

coronary artery stenosis [3] = assay: Insertion of drug-eluting stent into coronary artery: degree of stenosis; type: in vivo, beagle dogs; conditions: one month, most stenotic site of stent-inserted portion
Description: Nembutal-anesthetized beagle dogs were employed for the test. While each of the animals was ventilated with air, an 8-French guide catheter was inserted through the right common carotid artery, followed by left coronary angiography. Subsequently, a drug-eluting stent (inner layer: PLGA 7510 containing 50% phenolsulfonphthalein, outer layer: PLA 0010 containing 50% phenolsulfonphthalein) was inserted into the left circumflex branch, and then expanded at 9 atm, followed by placement of the stent. After recovery from anesthesia, the animal was bred for one month, and then was again subjected to coronary angiography. The degree of stenosis was measured at the most stenotic site of the stent-inserted portion, and the thus-measured stenosis degree was compared with that in the case of a non-eluting stent group (i.e., a group in which a stent that is not coated with a drug was inserted). Subsequently, the heart was extirpated from the animal, and then subjected to formalin fixation. Thereafter, a microscopic sample of the stent-inserted portion was prepared, followed by staining of vascular smooth muscle β-actin. Stem cells per unit area were counted at the highest-cell-density site of the intima, media, or adventitia of the above-stained sample. […]

[4] = tested on: β-actin-positive stem cells in the coronary artery wall; assay: Prevention of stem cell invasion associated with coronary angioplasty, local administration by pored balloon catheter: stem cell count; type: in vivo, beagle dogs; conditions: for stem cell density compared with the non-administration group: at all the membranes
Description: (§2) Nembutal-anesthetized beagle dogs were employed for the test. Each of the animals was endotracheally intubated, and ventilated with air. Subsequently, an 8-French sheath was inserted into the right common carotid artery. An 8-French guide catheter was inserted through the sheath, followed by coronary angiography. Subsequently, a clinically employed balloon catheter for coronary angioplasty (outer diameter: 3 mm, length: 20 mm) was inserted, and then the balloon was expanded at 9 atm, to thereby dilate a distal to intermediate portion of the anterior descending branch of the coronary artery. Through this procedure, the blood vessel wall was damaged. Subsequently, the aforementioned perforated balloon catheter equipped with an injection syringe containing 5% phenolsulfonphthalein (0.5 mL) or 5% bromosulfophthalein (0.5 mL) was guided by a guide wire and inserted into the above-dilated portion, and the phthalein compound (drug) was injected into the blood vessel wall at 3 atm. After completion of injection of the drug, the catheter was removed, and then the cervical portion through which the catheter had been inserted was sutured, followed by administration of an antibiotic. After recovery from anesthesia, the animal was cared for one week to one month, and was again subjected to coronary angiography. One week to one month later, the animal was anesthetized to stop cardiac beat and, the heart was removed from the animal, and then subjected to formalin fixation, followed by preparation of a microscopic sample of the above-dilated portion. Subsequently, the thus-prepared sample was subjected to azan staining and various immunostainings.
(§3) In connection with this finding, in the above-immunostained sample, stem cells per unit area (250×250 um^2) were counted at the highest-cell-density site of the intima, media, or adventitia. Comparison (in terms of the number of stem cells) was performed between drug administration groups and a non-administration group (control group) in which merely saline (0.5 mL) was injected into a portion of the coronary artery dilated with a balloon, and P<0.05 (by Student t test) was regarded as a significant difference.

[5] = tested on: dendritic cells in the coronary artery wall; assay: Prevention of cell invasion associated with coronary angioplasty, local administration: dendritic cell count (CD40 immunostaining); type: in vivo, beagle dogs; conditions: for Number of dendritic cells (250 × 250 μm^2): 5% drug 0.5 mL injected locally after balloon dilation; for invasion of dendritic cells: CD40 antibody immunostaining
Description: as §2, §3
Dendritic cells, which are inflammatory cells, were subjected to immunostaining with a CD40 antibody.

coronary artery stenosis [6] = assay: Coronary artery stenosis after balloon angioplasty, local administration (coronary angiography, azan staining); type: in vivo, beagle dogs; conditions: for stenosis as determined through coronary angiography: compared with non-administration group; for Stenosis degree (%): coronary angiography, 5% drug 0.5 mL injected locally after balloon dilation
Description: as §2

[7] = tested on: β-actin-positive vascular stem cells in coronary artery; assay: Insertion of drug-eluting stent into coronary artery: stem cell density; type: in vivo, beagle dogs; conditions: two-layer-coated drug-eluting stent (inner PLGA 7510, outer PLA 0010), one month
Description: Nembutal-anesthetized beagle dogs were employed for the test. While each of the animals was ventilated with air, an 8-French guide catheter was inserted through the right common carotid artery, followed by left coronary angiography. Subsequently, a drug-eluting stent (inner layer: PLGA 7510 containing 50% phenolsulfonphthalein, outer layer: PLA 0010 containing 50% phenolsulfonphthalein) was inserted into the left circumflex branch, and then expanded at 9 atm, followed by placement of the stent. After recovery from anesthesia, the animal was bred for one month, and then was again subjected to coronary angiography. The degree of stenosis was measured at the most stenotic site of the stent-inserted portion, and the thus-measured stenosis degree was compared with that in the case of a non-eluting stent group (i.e., a group in which a stent that is not coated with a drug was inserted). Subsequently, the heart was extirpated from the animal, and then subjected to formalin fixation. Thereafter, a microscopic sample of the stent-inserted portion was prepared, followed by staining of vascular smooth muscle β-actin. Stem cells per unit area were counted at the highest-cell-density site of the intima, media, or adventitia of the above-stained sample. Comparison (in terms of stem cell density) was performed between the drug-eluting stent group and the non-eluting stent group (i.e., the group in which a stent that is not coated with a drug was inserted).

[8] = tested on: thrombus in the right common carotid artery; assay: Arterial thrombosis, carotid intima damaged by Dotter balloon catheter; type: in vivo, dogs; conditions: 10 mg/kg intravenously; for Average thrombus weight: wet weight thirty minutes after intima damage
Description: Anesthetized dogs were employed for the test. Phenolsulfonphthalein or bromosulfophthalein (10 mg/kg, which is 100 times the amount clinically used for renal function testing) was intravenously administered to each of the animals, and the intima of the right common carotid artery was damaged by means of a Dotter balloon catheter. Thirty minutes later, the common carotid artery was extirpated, and the wet weight of thrombus present in the carotid artery was measured. The thus-measured wet weight was compared with that in the case of the control group.

[9] = tested on: β-actin-positive stem cells at the talc-administered site; assay: Inflammatory stenosis caused by talc at the coronary artery adventitia: stem cell density; type: in vivo, beagle dogs; conditions: for Number of stem cells (250 × 250 μm^2): one month
Description: (§4) Anesthetized beagle dogs were employed for the test. While each of the animals was ventilated with air, thoracotomy was performed at the left fifth intercostal space, to thereby expose the heart. Subsequently, talc powder was administered to the vicinity of the adventitia at an intermediate portion of the anterior descending branch of the left coronary artery, which caused inflammation. Subsequently, the thoracotomy site was closed, and phenolsulfonphthalein was injected under conditions similar to those of the test described above in (A) by use of a perforated balloon equipped with an injection syringe containing the drug. After recovery from anesthesia, the animal was bred for one month, and then subjected to coronary angiography. Thereafter, the heart was extirpated from the animal, and then subjected to formalin fixation. A microscopic sample of the talc-administered portion was prepared, and the sample was subjected to β-actin staining, followed by determination of the density of β-actin-positive cells (i.e., stem cells).

[10] = tested on: stenosis at the talc-administered site; assay: Inflammatory stenosis caused by talc at the coronary artery adventitia: degree of stenosis; type: in vivo, beagle dogs
Description: as §4

[11] = Adventitia, 5% drug 0.5 mL injected locally after balloon dilation
[12] = Intima, 5% drug 0.5 mL injected locally into vessel wall after balloon dilation, per unit area at highest-cell-density site
[13] = Media, 5% drug 0.5 mL injected locally after balloon dilation

SMILES	effect of inhibiting proliferation of human vascular endothelial cells (HUBEC) [1]	number of cells after culturing for three days ([1]; Concentration (mol) 10^−4)	number of cells after culturing for three days ([1]; Concentration (mol) 10^−5)	number of cells after culturing for three days ([1]; Concentration (mol) 10^−6)	number of cells after culturing for three days ([1]; Concentration (mol) 10^−7)	number of cells after culturing for three days ([1]; Concentration (mol) 10^−8)	effect of inhibiting proliferation of vascular smooth muscle cells [2]	number of cells after culturing for three days ([2]; Concentration (mol) 10^−4)	number of cells after culturing for three days ([2]; Concentration (mol) 10^−5)	number of cells after culturing for three days ([2]; Concentration (mol) 10^−6)	number of cells after culturing for three days ([2]; Concentration (mol) 10^−7)	number of cells after culturing for three days ([2]; Concentration (mol) 10^−8)	Stenosis degree (%) (coronary artery stenosis [3])	Number of stem cells [4, 11]	Number of stem cells [4, 12]	Number of stem cells [4, 13]	stem cell density compared with the non-administration group [4]	Number of dendritic cells (250 × 250 μm^2) ([5]; Adventitia)	invasion of dendritic cells [5]	Number of dendritic cells (250 × 250 μm^2) ([5]; Intima)	other results
O=C1OC(c2ccc(O)c(S(=O)(=O)O)c2)(c2ccc(O)c(S(=O)(=O)O)c2)c2c(Br)c(Br)c(Br)c(Br)c21 [Bromosulfophthalein, bromosulfophthalein]	no effect	3.44	3.43	3.52	3.59	3.34	no effect	3.43	3.78	4.19	4.14	4.24	11.2 ± 3.1 %	22.0 ± 6.2* 250×250 um^2	14.8 ± 6.1* 250×250 um^2	16.1 ± 4.8 250×250 um^2	significantly lower	3.6 ± 0.9* 250 × 250 μm^2	inhibited	1.6 ± 0.4* 250 × 250 μm^2	Number of dendritic cells (250 × 250 μm^2) ([5]; Media): 1.1 ± 0.1 250 × 250 μm^2; stenosis as determined through coronary angiography (coronary artery stenosis [6]): significantly inhibited; Stenosis degree (%) (coronary artery stenosis [6]): 33.5 ± 10.4 %; Number of stem cells (250 × 250 μm^2) ([7]; Adventitia): 20.3 ± 9.9* 250 × 250 μm^2; Number of stem cells (250 × 250 μm^2) ([7]; Intima): 8.8 ± 2.6** 250 × 250 μm^2; Number of stem cells (250 × 250 μm^2) ([7]; Media): 8.6 ± 5.0* 250 × 250 μm^2; effect of inhibiting thrombus formation (antithrombotic effect) [8]: no effect; also recorded: nor antithrombotic effect; Average thrombus weight [8]: 210 mg
O=S1(=O)OC(c2ccc(O)cc2)(c2ccc(O)cc2)c2ccccc21 [Phenolsulfonphthalein, phenolsulfonphthalein]	no effect	3.37	3.40	3.35	3.43	3.47	no effect	3.65	3.88	4.17	4.02	4.08	0 ± 0.0 %	19.3 ± 6.3* 250×250 um^2	11.0 ± 4.2* 250×250 um^2	10.1 ± 2.8* 250×250 um^2	significantly lower	1.0 ± 0.5* 250 × 250 μm^2	inhibited	0.2 ± 0.0* 250 × 250 μm^2	β-actin-positive cell density compared with the non-administration group [9]: significantly lower; Number of stem cells (250 × 250 μm^2) ([9]; Adventitia): 12.2 ± 3.4* 250 × 250 μm^2; Number of stem cells (250 × 250 μm^2) ([9]; Intima): 2.0 ± 0.8* 250 × 250 μm^2; Number of stem cells (250 × 250 μm^2) ([9]; Media): 2.6 ± 0.7* 250 × 250 μm^2; cell invasion (FIG. 2) ([4]; four weeks after dilation): less observed; cell invasion from the adventitia into the intima (FIG. 1) ([4]; one week after dilation with a balloon, azan staining): virtually no cell invasion is observed; also recorded: not observed; Number of dendritic cells (250 × 250 μm^2) ([5]; Media): 0.0 ± 0.0* 250 × 250 μm^2; stenosis as determined through coronary angiography (coronary artery stenosis [6]): significantly inhibited; Stenosis degree (%) (coronary artery stenosis [6]): 10.1 ± 2.5 %; stenosis due to intimal hyperplasia (FIG. 2) (coronary artery stenosis [6]; four weeks after dilation, azan staining): only slight intimal hyperplasia; also recorded: only slightly observed; degree of stenosis [10]: significantly lower; Stenosis degree (%) ([10]; one month, coronary angiography): 10.4 ± 2.7 %; Number of stem cells (250 × 250 μm^2) ([7]; Adventitia): 16.0 ± 7.1* 250 × 250 μm^2; Number of stem cells (250 × 250 μm^2) ([7]; Intima): 7.1 ± 3.2** 250 × 250 μm^2; Number of stem cells (250 × 250 μm^2) ([7]; Media): 9.0 ± 4.0* 250 × 250 μm^2; effect of inhibiting thrombus formation (antithrombotic effect) [8]: no effect; also recorded: nor antithrombotic effect; Average thrombus weight [8]: 195 mg
